Laboratory results reported in PubChem BioAssay (NCI).
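Where inhibition never reached the appropriate level, the endpoint shown equals the highest concentration tested. Otherwise, values were interpolated linearly from a five-concentration, 48-hour dose response in 96-well plates. The concentration for 50% growth inhibition is given as GI50. TGI: total growth inhibition.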

Assays:
Experiment in all cases: DTP human tumour cell line panel, 48 h
[1] = test system: A498 renal
[2] = test system: CAKI-1 renal
[3] = test system: RPMI-8226 leukemia
[4] = test system: SF-295 CNS
[5] = test system: A549 NSCLC
[6] = test system: PC-3 prostate
[7] = test system: COLO 205 colon
[8] = test system: HT29 colon
[9] = test system: T-47D breast
[10] = test system: U251 CNS
[11] = test system: OVCAR-8 ovarian
[12] = test system: UACC-257 melanoma
[13] = test system: NCI-H226 lung
[14] = test system: MOLT-4 leukemia
[15] = test system: HL-60(TB) leukemia
[16] = test system: SK-OV-3 ovarian
[17] = test system: NCI/ADR-RES ovarian
[18] = test system: OVCAR-4 ovarian
[19] = test system: SW-620 colon
[20] = test system: BT-549 breast
[21] = test system: LOX IMVI melanoma
[22] = test system: EKVX NSCLC
[23] = test system: HOP-92 NSCLC
[24] = test system: SK-MEL-5 melanoma
[25] = test system: SK-MEL-28 melanoma
[26] = test system: HS 578T breast
[27] = test system: SK-MEL-2 melanoma
[28] = test system: UACC-62 melanoma
[29] = test system: CCRF-CEM leukemia
[30] = test system: HCT-15 colon
[31] = test system: MCF7 breast
[32] = test system: HOP-62 NSCLC
[33] = test system: SF-539 CNS
[34] = test system: K-562 leukemia
[35] = test system: DU-145 prostate
[36] = test system: MALME-3M melanoma
[37] = test system: KM12 colon
[38] = test system: UO-31 renal
[39] = test system: HCC-2998 colon
[40] = test system: SNB-19 CNS
[41] = test system: OVCAR-3 ovarian
[42] = test system: SNB-75 CNS
[43] = test system: RXF 393 renal
[44] = test system: 786-0 renal
[45] = test system: ACHN renal
[46] = test system: NCI-H522 lung
[47] = test system: OVCAR-5 ovarian
[48] = test system: TK-10 renal
[49] = test system: SR leukemia
[50] = test system: SF-268 CNS
[51] = test system: IGROV1 ovarian
[52] = test system: NCI-H460 lung
[53] = test system: HCT-116 colon
[54] = test system: SN12C renal

`COc1cc(C2=NNC(c3ccc(N(C)C)cc3)C2)cc(OC)c1OC` (stereo not drawn) was tested, and the GI50 [1] was 2.87 µM, the TGI [1] was 8.84 µM and the GI50 [2] was 2.68 µM. For the same molecule, the TGI [2] was greater than 100 µM, the GI50 [3] was 1.71 µM and the TGI [3] was 11.7 µM. It also gave a GI50 [4] of 0.249 µM, a TGI [4] of 0.799 µM and a GI50 [5] of 3.94 µM. For the same molecule, the TGI [5] was greater than 100 µM, the GI50 [6] was 0.781 µM and the TGI [6] was greater than 100 µM. For the same molecule, the GI50 [7] was 2.39 µM, the TGI [7] was 12.5 µM and the GI50 [8] was 0.667 µM. It also gave a TGI [8] greater than 100 µM, a GI50 [9] of 19.8 µM and a TGI [9] greater than 100 µM. The GI50 [10] was 0.672 µM, the TGI [10] was greater than 100 µM and the GI50 [11] was 4.13 µM. For the same molecule, the TGI [11] was greater than 100 µM, the GI50 [12] was 8.61 µM and the TGI [12] was 47.4 µM. The GI50 [13] was 54.7 µM, the TGI [13] was greater than 100 µM and the GI50 [14] was 2.81 µM. The TGI [14] was 11.4 µM, the GI50 [15] was 1.62 µM and the TGI [15] was 4.96 µM. The GI50 [16] was 4.22 µM, the TGI [16] was greater than 100 µM and the GI50 [17] was 2.2 µM. It also gave a TGI [17] greater than 100 µM, a GI50 [18] of 16.9 µM and a TGI [18] greater than 100 µM. It also gave a GI50 [19] of 0.45 µM, a TGI [19] greater than 100 µM and a GI50 [20] of 0.811 µM. For the same molecule, the TGI [20] was 10.3 µM, the GI50 [21] was 7.18 µM and the TGI [21] was greater than 100 µM. The GI50 [22] was 2.02 µM, the TGI [22] was 6.02 µM and the GI50 [23] was 3.77 µM. For the same molecule, the TGI [23] was greater than 100 µM, the GI50 [24] was 2.09 µM and the TGI [24] was 7.15 µM. It also gave a GI50 [25] of 15.6 µM, a TGI [25] greater than 100 µM and a GI50 [26] of 2.24 µM. The TGI [26] was 5.96 µM, the GI50 [27] was 3.18 µM and the TGI [27] was 26.2 µM. The GI50 [28] was 4.37 µM, the TGI [28] was greater than 100 µM and the GI50 [29] was 1.62 µM. The TGI [29] was 6.22 µM, the GI50 [30] was 2.48 µM and the TGI [30] was greater than 100 µM. For the same molecule, the GI50 [31] was 0.433 µM, the TGI [31] was greater than 100 µM and the GI50 [32] was 1.13 µM. It also gave a TGI [32] greater than 100 µM, a GI50 [33] of 0.56 µM and a TGI [33] of 2.89 µM. For the same molecule, the GI50 [34] was 0.406 µM, the TGI [34] was 74.5 µM and the GI50 [35] was 1.88 µM. For the same molecule, the TGI [35] was 5.41 µM, the GI50 [36] was 7.85 µM and the TGI [36] was greater than 100 µM. It also gave a GI50 [37] of 0.525 µM, a TGI [37] of 12.4 µM and a GI50 [38] of 4.75 µM. The TGI [38] was 50.6 µM, the GI50 [39] was 1.4 µM and the TGI [39] was 4.6 µM. It also gave a GI50 [40] of 1.82 µM, a TGI [40] greater than 100 µM and a GI50 [41] of 6.07 µM. For the same molecule, the TGI [41] was greater than 100 µM, the GI50 [42] was 1.02 µM and the TGI [42] was greater than 100 µM. For the same molecule, the GI50 [43] was 1.2 µM, the TGI [43] was 4.83 µM and the GI50 [44] was 1.93 µM. For the same molecule, the TGI [44] was greater than 100 µM, the GI50 [45] was 11.3 µM and the TGI [45] was greater than 100 µM. The GI50 [46] was 2 µM, the TGI [46] was 5.74 µM and the GI50 [47] was 4.73 µM. The TGI [47] was greater than 100 µM, the GI50 [48] was 10.1 µM and the TGI [48] was greater than 100 µM. The GI50 [49] was 0.25 µM, the TGI [49] was 8.06 µM and the GI50 [50] was 2.09 µM. It also gave a TGI [50] greater than 100 µM, a GI50 [51] of 0.546 µM and a TGI [51] of 3.06 µM. The GI50 [52] was 1.14 µM, the TGI [52] was 6.83 µM and the GI50 [53] was 2.03 µM. It also gave a TGI [53] of 19.7 µM, a GI50 [54] of 4.63 µM and a TGI [54] greater than 100 µM.
